How the values were obtained:
[1] = tested on: Huh7 liver cells; test: Uptake of HA, ADAM10/17, Hck and MMPs into EV from HAS-induced Huh7 liver cells (Western blot); type: cell-based
Method: (B): Hymecromone inhibits the uptake of HA into EV. […] Subsequently EV were purified from culture supernatant of Huh7 cells that were not treated for HAS induction (nil), from Huh7 cells that were treated for HAS induction (48 h; HAS-nd.) and from Huh7 cells that were treated for has induction and additionally incubated with Hymecromone (HAS-ind.+HyCr.). CD81 served as a loading control for pEV. Cell lysates from 293 T cells served as positive control for HA.
Subsequently EV were purified from culture supernatant of Huh7 cells that were not treated for HAS induction (nil), from Huh7 cells that were treated for HAS induction (48 h; HAS-ind.) and from Huh7 cells that were treated for HAS induction and additionally incubated with Hymecromone (HAS-nd.+HyCr.). Red arrows indicate the enzymatic active form of ADAM10 and ADAM17. CD81 served as a loading control for pEV. Cell lysates from 293 T cells served as positive control for HA.
In vitro a concentration of 300 μmol was sufficient to completely block the uploading of HA, Hck, and ADAM10 into vesicles. Whether these concentrations can be reached in circulation after oral uptake is not clear, as Hymecromone is efficiently metabolized in the […]. On the other hand PCpEV are generated by liver cells where Hymecromone is metabolized. […] Furthermore, there are likely inter-individual differences with respect to Hymecromone metabolization.
293Tcells were cultured in DMEM (Lonza), 10% (v/v) fetal bovine serum (FBS) with Penicillin-Strepto-mycin at 37° C., 5% CO2. For transient transfection, plasmids encoding the indicated proteins were transfected with Lipofectamine® LTX with Plus™ Reagent (Invitrogen) according to the manufacturer's instructions, or using the classical calcium phosphate procedure. Cells were used for experiments 24-72 h after transfection. Hymecromone was added at a final concentration of […] after transfection. For immunoblotting 20 μg of cellular protein lysate and 10 μg of EV lysate were loaded per lane. The latter corresponded to the production/secretion of 2-4 mio 293T cells within 48 h transfected and grown in one 10 cm dish.

[2] = tested on: Choriod Plexus; test: Accumulation of labeled EV in the choroid plexus after tail vein injection of 4MU-treated EV; type: in vivo; conditions: 72 h after injection of 4MU-treated EV into tail veins of a mouse, n=4/condition; FIG. 3
Method: (A) Accumulation/absence of accumulation of labeled pEV (red) in the Choriod Plexus 72 h after injection of 4MU-treated EV into tail veins of a mouse (n=4/condition). (B) IHC of a hippocampal section and quantification of EVc pos. cells. Statistical significance by one-way ANOVA and Tukey's test, ***p<0.005.

[3] = Treatment of patients with 4MU; type: in vivo; conditions: 4×300 mg 4MU
[4] = cited from earlier work
[5] = tested on: three isotypes of HAS; conditions: cited from earlier work

Compound: Cc1cc(=O)oc2cc(O)ccc12 [Hymecromone, 4-methylumbelliferone]
- uptake of ADAM10 and 17 and Hck into EV ([1]; Huh7 cells treated for HAS induction (48 h) and incubated with Hymecromone, FIG. 2): inhibits
- uptake of HA into EV ([1]; Huh7 cells treated for HAS induction (48 h) and incubated with Hymecromone, Western blot, FIG. 1B): inhibits
- concentration sufficient to completely block the uploading of HA, Hck, and ADAM10 into vesicles ([1]; in vitro): 300 µmol
- incorporation of LMW-HA, ADAM10/17, Hck, and MMPs into extracellular vesicles ([1]; pharmacological inhibition of HAS activity): efficiently blocked
- EV upload and CP targeting [2]: blocks
- clinical outcome, Long COVID ([3]; 32 old patient): fully recovered
- clinical outcome, Alzheimer's disease (AD)-associated depression ([3]; patient): improved significantly
- serious side effects in clinical trials ([4]; at least 182 patients treated in clinical trials): no serious side effects
- fraction of unchanged Hymecromone reaching systemic circulation ([4]; efficient metabolism by the liver): low
- inhibition of the three isotypes of HAS [5]: efficiently inhibited
